In brackets after ≈: the same amount, converted by molar mass. Read-outs that look alike come from different tables or passages of the source. Marks after values point to notes of the source that are not given here.
What was measured:
[1] = tested on: M. tuberculosis clinical strain katG (S315T); format: cell-based, Mycobacterium tuberculosis
[2] = tested on: M. tuberculosis clinical strain katG (S315T); conditions: ref Martins et al., cited from earlier work

In the case of `O=C(N/N=C/c1ccc(Oc2ccccc2)cc1)c1ccncc1` [Compound N34, (E)-N'-(4-phenoxybenzylidene)isonicotinohydrazide], the “activity in the mutated strain” value [1] is listed as “still active”, the “increase of MIC going from wt to S315T” value [1] is listed as ~20 fold and the “MIC (katG S315T)” value ([2]; katG (S315T) Mtb, 2014) is listed as 18.9 ^a µM.

For `COC(=O)c1ccc(CNNC(=O)c2ccncc2)cc1` [Compound N33red, methyl 4-((2-isonicotinoylhydrazinyl)methyl)benzoate], the “activity in the mutated strain” value [1] was “completely abolished”.

For `O=C(NNCc1ccc(Oc2ccccc2)cc1)c1ccncc1` [Compound N34red, N'-(4-phenoxybenzyl)isonicotinohydrazide], the “activity in the mutated strain” value [1] was “completely abolished”.

In the case of `COC(=O)c1ccc(/C=N/NC(=O)c2ccncc2)cc1` [Compound N33, methyl (E)-4-((2-isonicotinoylhydrazineylidene)methyl)benzoate], the “activity in the mutated strain” value [1] is listed as “still active”, the “increase of MIC going from wt to S315T” value [1] is listed as ~20 fold and the “MIC (katG S315T)” value ([2]; katG (S315T) Mtb, 2014) is listed as 21.2 ^a µM.

For `CCCCCCCCCC(=O)NNC(=O)c1ccncc1` [INH-C10, N′-decanoylisonicotinoylhydrazide], the “gain in efficacy against katG (S315T) strain compared with INH” value [1] is listed as 6 fold, the “increase of MIC going from wt to S315T” value [1] is listed as ~20 fold and the “MIC (katG S315T)” value ([2]; Table S1, 2014 (per Table 2)) is listed as 2.0 g/mL (≈ 6860 mM). The “MIC (katG S315T)” value ([2]; katG (S315T) Mtb, 2014) was 6.9 ^a µM.

In the case of `NNC(=O)c1ccncc1` [INH, isonicotinoylhydrazide, reference compound], the “increase of MIC going from wt to S315T” value [1] is listed as “approximately 150 fold” and the “MIC (katG S315T)” value ([2]; katG (S315T) Mtb, 2014) is listed as 43.8 ^a µM.
